Results reported in patent publication US12441980B2, “Methods for overcoming glutamine deprivation during mammalian cell culture” (priority 2014, dated 2025).

How the values were obtained:
[1] = test system: mammalian cells expressing an immunoadhesin (DG44); experiment: Transition of immunoadhesin-expressing cells from glutamine-containing to glutamine-free media: cell viability and growth rate (trypan blue exclusion, Cedex); type: cell-based; settings: 2.5 μM corticosteroid in glutamine-free media; FIG. 3
From the text: Cell culture methods: Cells were thawed and maintained as in a previous report (Kshirsagar, et al. 2012 Biotechnol Bioeng, Huang, et al. Biotechnology Progress 26(5):1400-1410 (2010)). Basal medium for thaw and passing was the same as in previous reports (Kshirsagar/Huang).

[2] = test system: anti alpha-synuclein CHO cells; experiment: Transition of anti alpha-synuclein CHO cells from glutamine-containing to glutamine-free media: growth rate and viability
Description: Anti alpha-synuclein cells were transferred from glutamine-containing media to glutamine-free media using a 1:5 split ratio on Day 0. Cells were cultured at 36° C., 5% CO2 in 500 mL shake flasks and passaged every 4 days using glutamine-free media+10 mg/L insulin (first bar in FIG. 7A, diamond in FIG. 7B), glutamine-free media+10 mg/L insulin, 100 μM hypoxanthine, 16 μM thymidine (second bar in FIG. 7A, square in FIG. 7B), glutamine-free media+10 mg/L insulin, 500 μM adenosine (third bar in FIG. 7A, triangle in FIG. 7B), or glutamine-free media+10 mg/L insulin, 100 μM adenosine (fourth bar in FIG. 7A, circle in FIG. 7B), using a 1:5 split ratio.
Offline analysis: Samples were taken on most days and analyzed with a variety of equipment. Cell density and viability were measured using the standard technique of trypan blue exclusion using a Cedex (Roche Innovatis AG, Germany). Cell viability and growth rate of the various cultures were measured during the culture time course at specific days post-inoculation.
Anti alpha-synuclein CHO cells were transferred from glutamine-containing media to glutamine-free media using a 1:5 split ratio on Day 0.

For C[C@]12C=CC(=O)C=C1CC[C@@H]1[C@@H]2[C@@H](O)C[C@@]2(C)[C@H]1CC[C@]2(O)C(=O)CO [prednisolone], the “viability drop vs control condition” value [1] was “prevented the sharp viability drop” and the viability recovery period [1] was “shortened the viability recovery period”.
With C[C@]12CCC(=O)C=C1CC[C@@H]1[C@@H]2[C@@H](O)C[C@@]2(C)[C@H]1CC[C@]2(O)C(=O)CO [hydrocortisone] the “viability drop vs control condition” value [1] was “prevented the sharp viability drop” and the viability recovery period [1] was “shortened the viability recovery period”.
For Nc1ncnc2c1ncn2[C@@H]1O[C@H](CO)[C@@H](O)[C@H]1O [adenosine], the “toxicity (concentration-dependent response)” value ([2]; 500 μM supplementation compared to 100 μM supplementation) was “slightly toxic”, the “viability during transition to glutamine-free media” value ([2]; HT 100 μM/16 μM, adenosine 500 μM or 100 μM, FIG. 7B) was “maintains” and the transitional growth rate ([2]; transition to glutamine-free media, 1:5 split ratio, HT 100 μM/16 μM, adenosine 100 or 500 μM, FIG. 7A) was “boosted the transitional growth rate”.
